{"source": "patent US7211562B2", "about": "“Methods for enhancing the efficacy of cytotoxic agents through the use of HSP90 inhibitors” (Sloan-Kettering Institute for Cancer Research, priority 2000, dated 2007)", "key": {"SKBR-3 cells [1]": {"test_system": "SKBR-3 cells", "test": "Cell cycle distribution by DNA content (FACS)", "assay_type": "cell-based, human", "settings": "SKBR-3, 10 nM Taxol 4 h, 50 nM CNF-101 12–24 h, or reversed order", "protocol": "Cells were trypsinized and analyzed by DNA content (an indication of cell cycle status) by fluorescent staining and FACS analysis. Cell cycle distribution was assayed according to Nusse et al., 1990, Cytometry, 11: 813, with a Becton Dickinson fluorescence-activated cell sorter and analyzed by Cell Cycle Multi-cycle system (Phoenix Flow System, San Diego, Calif.)."}, "SKBR-3 cells [2]": {"test_system": "SKBR-3 cells", "test": "Confocal microscopy of spindle formation and nuclear fragmentation (Hoechst / anti-tubulin dual stain)", "assay_type": "cell-based, human", "settings": "12 h; for apoptosis / nuclear fragmentation / mitotic spindle formation / mitotic index: SKBr-3, 10 nM Taxol 4 h followed by 50 nM CNF-101 or vehicle", "protocol": "Each experiment was repeated in triplicate.\nThe effects of Taxol®, CNF-101 and a combination of the two agents on nuclear fragmentation (a marker of apoptosis) and mitotic spindle formation in SKBR-3 cells were assessed.\nIn these sections, 4% of cells were undergoing mitosis and the mitotic cells appeared normal."}}}
{"smiles": "C=CCNC1=C2C[C@@H](C)C[C@H](OC)[C@H](O)[C@@H](C)/C=C(\\C)[C@H](OC(N)=O)[C@@H](OC)/C=C\\C=C(/C)C(=O)NC(=CC1=O)C2=O", "note": "[CNF-101, 17-allylamino 17-demethoxygeldanamycin]", "values": [{"measurement": "cell cycle distribution", "setting": "SKBR-3 cells [1]", "result": "slightly enhanced the G1 fraction"}, {"measurement": "apoptosis / nuclear fragmentation", "setting": "SKBR-3 cells [2]", "result": "no significant apoptosis"}, {"measurement": "mitotic spindle formation / mitotic index", "setting": "SKBR-3 cells [2]", "result": "no effect on the spindle"}, {"measurement": "cells undergoing mitosis", "setting": "SKBR-3 cells [2]; SKBr-3, 50 nM CNF-101 alone (or neither drug)", "result": 4, "unit": "%"}]}
{"smiles": "CC(=O)O[C@H]1C(=O)[C@@]2(C)[C@H]([C@H](OC(=O)c3ccccc3)[C@]3(O)C[C@H](OC(=O)[C@H](O)[C@@H](NC(=O)c4ccccc4)c4ccccc4)C(C)=C1C3(C)C)[C@]1(OC(C)=O)CO[C@@H]1C[C@@H]2O", "note": "[Taxol®, paclitaxel]", "values": [{"measurement": "cell cycle distribution", "setting": "SKBR-3 cells [1]", "result": "massive G2-M arrest"}, {"measurement": "apoptosis / nuclear fragmentation", "setting": "SKBR-3 cells [2]", "result": "little evidence of apoptotic nuclear fragmentation"}, {"measurement": "mitotic spindle formation / mitotic index", "setting": "SKBR-3 cells [2]", "result": "increase in the mitotic index with all the mitotic cells appearing to have damaged spindles"}]}
